According to ChEMBL document CHEMBL3272212, “Synthesis and antimineralocorticoid activities of some 6-substituted 7 alpha-carboalkoxy steroidal spirolactones” (1977):

Experiments:
Type in all cases: functional, Urine
Rattus norvegicus [1] = assay: Inhibition of deoxycorticosterone acetate-induced urinary electrolyte effects in sc dosed adrenalectomized rat assessed as increase in Na:K ratio
Rattus norvegicus [2] = assay: Inhibition of deoxycorticosterone acetate-induced urinary electrolyte effects in intragastrically dosed adrenalectomized rat assessed as increase in Na:K ratio
Rattus norvegicus [3] = assay: Ratio of MED for Inhibition of deoxycorticosterone acetate-induced urinary electrolyte effects in intragastrically dosed adrenalectomized rat to MED for deoxycorticosterone acetate-induced urinary electrolyte effects in sc dosed adrenalectomized rat

## COC(=O)[C@H]1[C@@H]2[C@H](CC[C@@]3(C)[C@H]2CC[C@@]32CCC(=O)O2)[C@@]2(C)CCC(=O)C=C2[C@@H]1O
Rattus norvegicus [1]
  MED: 0.42 mg
Rattus norvegicus [2]
  MED: 2.12 mg

## [2H][C@H]1C2=CC(=O)CC[C@]2(C)[C@H]2CC[C@@]3(C)[C@@H](CC[C@@]34CCC(=O)O4)[C@@H]2[C@@H]1C(=O)OC
Rattus norvegicus [1]
  MED: 0.3 mg
Rattus norvegicus [2]
  MED: 1 mg

## COC(=O)[C@H]1[C@@H]2[C@H](CC[C@@]3(C)[C@H]2CC[C@@]32CCC(=O)O2)[C@@]2(C)CCC(=O)C=C2[C@@H]1Br
Rattus norvegicus [1]
  MED: 0.58 mg
Rattus norvegicus [2]
  MED: 1.05 mg

## COC(=O)[C@H]1[C@@H]2[C@H](CC[C@@]3(C)[C@H]2CC[C@@]32CCC(=O)O2)[C@@]2(C)CCC(=O)C=C2[C@@H]1C
Rattus norvegicus [1]
  MED: 0.2 mg
Rattus norvegicus [2]
  MED: 0.58 mg

## CC(C)OC(=O)[C@H]1[C@@H]2[C@H](CC[C@@]3(C)[C@H]2CC[C@@]32CCC(=O)O2)[C@@]2(C)CCC(=O)C=C2[C@@H]1O
Rattus norvegicus [1]
  MED: 0.28 mg
Rattus norvegicus [2]
  MED: 1.81 mg
Rattus norvegicus [3]
  Ratio: 6

## C=C1C2=CC(=O)CC[C@]2(C)[C@H]2CC[C@@]3(C)[C@@H](CC[C@@]34CCC(=O)O4)[C@@H]2[C@@H]1C(=O)OC
Rattus norvegicus [1]
  MED: >2.4 mg
Rattus norvegicus [2]
  MED: >2.4 mg

## COC(=O)[C@H]1[C@@H]2[C@H](CC[C@@]3(C)[C@H]2CC[C@@]32CCC(=O)O2)[C@@]2(C)CCC(=O)C=C2[C@H]1C
Rattus norvegicus [1]
  MED: 0.47 mg
Rattus norvegicus [2]
  MED: >2.4 mg

## CC(=O)S[C@@H]1CC2=CC(=O)CC[C@]2(C)[C@H]2CC[C@@]3(C)[C@@H](CC[C@@]34CCC(=O)O4)[C@H]12 [SPIRONOLACTONE]
Rattus norvegicus [1]
  MED: 0.33 mg
Rattus norvegicus [2]
  MED: 0.48 mg
